Measured values: patent US20100215710A1, “Beta-2 Adrenergic Receptor Agonists and Antagonists and Modulation of Wound Healing” (The Regents of the University of California, priority 2005, published 2010)

What was measured:
[1] = system: corneal epithelial wounds; assay: Corneal epithelial wound healing in vivo in β2-AR +/+ or −/− mice
Experimental: Using male β2-AR +/+ or β2-AR −/− mice, 2 mm diameter circular corneal epithelial wounds (OD) were created using a crescent blade. The corneas were treated topically with Balanced Salt Solution (BSS), BSS with 1% isoproterenol, or BSS with 0.5% timolol, and the wound healing was monitored stereomicroscopically using fluorescein.

[2] = system: cultured human keratinocytes; assay: Keratinocyte migratory speed with epinephrine at post-burn levels; assay type: cell-based
Source text: (§1) Since burn wounded patients have elevated levels of the circulating β2-AR activator epinephrine, whether blockade of β2-ARs increases keratinocyte migration and has the potential to accelerate burn wound re-epithelialization was examined.

human keratinocytes [3] = assay: Scratch wounding of confluent keratinocytes with epinephrine; assay type: cell-based
Source text: as §1

β2-AR = assay: Western blot of β2-AR in scratch wounded keratinocyte cultures; assay type: cell-based, human; settings: addition of timolol
Source text: as §1

human skin burn wounds = assay: Ex vivo model of burn wound healing in excised human skin; assay type: cell-based; settings: for burn wound re-epithelialization status: 10 μm, day ten after the burn wound, control did not fully re-epithelialize
Experimental: An ex vivo model of burn wound healing was developed. A heated brass rod was applied to excised human skin, obtained and maintained basically as described above in Example 1. Burn wounds were treated with β-AR agonist (10 μm isoproterenol) or β-AR antagonist (10 μm timolol). […] Images were taken at 40× magnification.

human keratinocytes [4] = assay: Scratch assay, confluent keratinocyte cultures (clenbuterol); assay type: cell-based; settings: 1 μM clenbuterol
Experimental: Human keratinocytes were isolated from neonatal foreskins as reported previously (Isseroff et al. (1987) Conversion of linoleic acid into arachidonic acid by cultured murine and human keratinocytes. J Lipid Res 28:1342-1349) and cultured using a modification of the method of Rheinwald and Green (Rheinwald and Green (1975) Serial cultivation of strains of human epidermal keratinocytes: the formation of keratinizing colonies from single cells. Cell 6:331-343). […]
Cells were grown to confluence on cover-slips (Fisher Scientific, Pittsburgh, Pa.) coated with 60 μg/ml Collagen I (Vitrogen 100, Collagen Corp., Palo Alto, Calif.). […] The area of the wound was determined using NIH Image 1.6 and the percent wound healing calculated by dividing the area of the wound at time X by the area of the wound at time 0 and multiplying by 100. […]
Keratinocytes were grown to confluence on collagen-coated glass cover-slips in the absence (control) or presence of 1 μM clenbuterol. […] Representative photographs of images at time 40 hours are shown in FIG. 1 Panel A. The percent wound healing was calculated and is represented graphically in FIG. 1 Panel B; control wounds are indicated by circles, clenbuterol treated by squares. […]

human keratinocytes [5] = assay: Single cell migration assay, keratinocytes (clenbuterol, OA); assay type: cell-based; settings: 1 μM clenbuterol, one-hour period, vs control
Experimental: All single cell migration assays were performed on cells plated on glass cover-slips inserted into 35 mm plastic dishes (MatTek Corp., Ashland, Mass.) that had been coated for 1 hour at 37° C. with 60 μg/ml collagen L Cells were plated onto the collagen-coated glass cover-slips at a density of 250 cells/mm^2 for 3-6 hours at 37° C. Cells were either untreated (control), pre-treated with 10 nM okadaic acid (OA) (10 nM) for 45 minutes prior to the addition of OA (10 nM) and clenbuterol (1 μM) (OA/Clen) or treated with either OA or clenbuterol (1 μM) alone at time 0. The dishes were inserted into metal plates, maintained at 37° C., on inverted Nikon Diaphot microscopes to monitor single cell migration. Time-lapse images of the cell migratory response were digitally captured every 10 minutes over a one-hour period by Q-Imaging Retiga-EX cameras (Burnaby, BC, Canada) controlled by a custom automation written in Improvision Open Lab software (Lexington, Mass.) on a Macintosh G4. After each cell's center of mass was tracked using the Open Lab software, migration speed and distance were calculated and imported to Excel (Microsoft Corporation, Redmond, Wash.). Significance was taken as p<0.01, using Student's t test (unpaired) to compare the means of the control and β-AR agonist-treated cell populations.
Keratinocytes were plated onto collagen-coated glass cover-slips at a concentration of 250 cells/mm^2 in KGM for 3-6 hours at 37° C. The migration of each single cell was monitored over a one-hour period, and the results were analyzed in excel as described. The speed of migration ([…]) is represented graphically in FIG. 1 Panel C, control n=57, clenbuterol n=57, OA n=60, OA-clenbuterol n=44. The data are representative of three independent experiments with at least two different keratinocyte strains. * P<0.01 between β-AR agonist and controls; #P<0.01 between OA-clenbuterol and clenbuterol alone.

[6] = cited from earlier work
human skin wounds = assay: Human skin wound healing assay (explant culture, 10% serum); assay type: cell-based; settings: isoproterenol-treated wounds
Source text: A wound healing model developed by Kratz (Kratz (1998) Modeling of wound healing processes in human skin using tissue culture. Microsc Res Tech 42:345-350) was adapted. Normal human skin was obtained from routine breast reductions or abdominoplasties under an approved exemption granted by the Internal Review Board at University of California, Davis. Under sterile conditions, excess subcutaneous fat was trimmed from 6″×3″ sections of skin prior to stretching and pinning onto sterile cork board. A 3 mm punch (Sklar Instruments, West Chester, Pa.) was used to make wounds in the epidermis and into the superficial dermis and the 3 mm discs of skin were excised using sterile scissors. 6 mm skin discs, with the 3 mm epidermal wound in the center, were excised using a 6 mm biopsy punch (SMS Inc., Columbia, Md.). […] Re-epithelialization was determined using light microscopy. […] Measuring the linear distance covered by new epithelium and dividing that by the linear distance between the original wound edges determined the percentage of re-epithelialization. […]
Wounds, 3 mm in diameter, were generated in excised human skin, cultured in the presence or absence of 10 μM isoproterenol, fixed and stained every day after wounding as described. Re-epithelialization was determined using light microscopy. […]

With `CC(C)(C)NC[C@H](O)COc1nsnc1N1CCOCC1` [timolol] the rate of healing ([1]; β2-AR +/+ mice, topical BSS with 0.5% timolol) was “increased the rate of healing significantly”, the “increase in rate of healing” value ([1]; β2-AR −/− mice, topical BSS with 0.5% timolol) was “but not in β2-AR −/− mice” and the “migratory speed of epinephrine-treated keratinocytes” value ([2]; timolol 10 μM added to epinephrine 10 nM) was “restored the migratory speed to control levels”. For the same compound, the “acceleration of scratch wound healing” value (human keratinocytes [3]; timolol added to epinephrine) was 20%, the “effect on epinephrine-reduced scratch wound healing” value (human keratinocytes [3]; timolol added to epinephrine) was “reversed the effects of epinephrine” and the “β2-AR downregulation one hour after the scratch” value (β2-AR) was “delayed”. For the same compound, the enhancement of re-epithelialization (human skin burn wounds; 10 μm timolol, day ten after the burn) was 37% and the “burn wound re-epithelialization status” value (human skin burn wounds) was “fully re-epithelialized”.
For `CNC[C@H](O)c1ccc(O)c(O)c1` [epinephrine], the “decrease in keratinocyte migratory speed” value ([2]; epinephrine 10 nM) was 75% and the “reduction of scratch wound healing” value (human keratinocytes [3]; epinephrine pretreatment) was 70%.
In the case of `CC(C)(C)NCC(O)c1cc(Cl)c(N)c(Cl)c1` (stereo not shown) [clenbuterol], the “time required for scratch wounds to heal” value (human keratinocytes [4]) was “significantly increases”, the “percent wound healing of scratch wounds” value (human keratinocytes [4]; 40 hours after wounding, control wounds completely healed) was 40% and the “reduction of keratinocyte migratory speed” value (human keratinocytes [5]) was 45%.
For `CC(C)(C)NCC(O)COc1cccc2c1CC(O)C(O)C2` (stereo not shown) [Nadolol, nadolol], the lipid solubility [6] is given as “low”.
With `CC(C)NCC(O)c1ccc(O)c(O)c1` (stereo not shown) [isoproterenol] the “re-epithelialization of human skin wounds” value (human skin wounds) was “significant delay”, the “delay of wound healing (rate, linear phase)” value ([1]; β2-AR +/+ mice, topical BSS with 1% isoproterenol) was ~80% and the “delay of wound healing” value ([1]; β2-AR −/− mice, topical BSS with 1% isoproterenol) was “but not in β2-AR −/− mice”. The delay of re-epithelialization (human skin burn wounds; 10 μm isoproterenol, day ten after the burn) was 14% and the “burn wound re-epithelialization status” value (human skin burn wounds) was “did not fully re-epithelialize”.
